One assay has as its system Puccinia recondita. The assay can be described thus: Curative activity against Puccinia recondita on wheat (wheat leaf rust). The following applies: wheat 'Kanzler', 7 days. The format is in vivo. As for the experimental part:
(§1) The active compounds, separately or together, were formulated as a 10% strength emulsion in a mixture of 70% by weight of cyclohexanone, 20% by weight of Nekanil® LN (Lutensol® AP6, wetting agent having emulsifying and dispersing action based on ethoxylated alkylphenols) and 10% by weight of Emulphor® EL (Emulan® EL, emulsifier based on ethoxylated fatty alcohols) and correspondingly diluted with water to the desired concentration.
(§2) Evaluation was carried out by determining the infected leaf areas in percent. These percentages were converted into efficacies. The efficacy (W) was calculated as follows using Abbot's formula: […]
α corresponds to the fungal infection of the treated plants in % and β corresponds to the fungal infection of the untreated (control) plants in % An efficacy of 0 means that the infection level of the treated plants corresponds to that of the untreated control plants; an efficacy of 100 means that the treated plants were not infected.
The expected efficacies of the mixtures of the active compounds were determined using Colby's formula [R. S. Colby, Weeds 15, 20-22 (1967)] and compared with the observed efficacies.
Colby's formula: E=x+y−x·y/100
E expected efficacy, expressed in % of the untreated control, when using the mixture of the active compounds A and B at the concentrations a and b x efficacy, expressed in % of the untreated control, when using active compound A at a concentration of a y efficacy, expressed in % of the untreated control, when using active compound B at a concentration of b.
Leaves of potted wheat seedlings of the cultivar “Kanzler” were dusted with spores of leaf rust (Puccinia recondita). Thereafter, the pots were kept for 24 hours in a chamber of high atmospheric humidity (90 to 95%) and at 20-22° C. During this time, the spores germinated and the germinal tubes penetrated into the leaf tissue. […] Thereafter, the extent of the rust fungus development on the leaves was determined. […]

In assay [1] the test system is mildew of wheat (Blumeria graminis forma specialis tritici). The assay can be described thus: Activity against mildew of wheat (protective, potted wheat seedlings). It is filed as in vivo. The following applies: wheat 'Kanzler', 7 days. As for the experimental part:
as §1, §2
The expected efficacies of the mixtures of the active compounds were determined using Colby's formula [R. S. Colby, Weeds 15, 20-22 (1967)] and compared with the observed efficacies. […]
Leaves of potted wheat seedlings of the culivar “Kanzler” were sprayed to run off point with an aqueous preparation of active compound which had been prepared from a stock solution made of 10% of active compound, 85% of cyclohexanone and 5% of emulsifier and, 24 hours after the spray coating had dried on, dusted with spores of mildew of wheat (Blumeria graminis forma specialis tritici). […] After 7 days, the extent of the mildew development was determined visually in % infection of the total leaf area. […]

Results on one substance are retold here after patent publication US6503932B2, “Fungicidal mixtures based on amide compounds” (BASF Aktiengesellschaft, priority 2000, dated 2003).

In the case of spiroxamine [spiroxamine (II)], the “Efficacy in % of the untreated control” value in the assay on Puccinia recondita (1.5 ppm in the spray liquor) is 0%; with Puccinia recondita (3 ppm in the spray liquor), 0%; in the assay on Puccinia recondita (12.5 ppm in the spray liquor), 30%; in assay [1] (1.5 ppm in the spray liquor) it was 0%; in assay [1] (3 ppm in the spray liquor) it was 20%.
